How the values were obtained:
Type in all cases: functional
[1] = tested on: Mus musculus; assay: Cicatrizant activity against mouse measured by wound breaking strength at 50 mg/ml administered every 12 hrs measured after 48 hrs relative to control
[2] = tested on: Mus musculus; assay: Cicatrizant activity against mouse assessed as wound breaking strength per gram of body weight administered every 12 hrs measured after 48 hrs relative to control
[3] = tested on: Mus musculus; assay: Cicatrizant activity against mouse measured by wound breaking strength at 60 ug/g administered every 12 hrs measured after 48 hrs relative to control
[4] = tested on: Mus musculus; assay: Cicatrizant activity against mouse measured by wound breaking strength at 40 ug/g administered every 12 hrs measured after 48 hrs relative to control
[5] = tested on: Mus musculus; assay: Cicatrizant activity against mouse measured by wound breaking strength at 30 ug/g administered every 12 hrs measured after 48 hrs relative to control
[6] = tested on: Mus musculus; assay: Cicatrizant activity against mouse measured by wound breaking strength at 50 ug/g administered every 12 hrs measured after 48 hrs relative to control
[7] = tested on: Mus musculus; assay: Cicatrizant activity against mouse measured by wound breaking strength at 12.5 mg/ml administered every 12 hrs measured after 48 hrs relative to control

| SMILES | Activity [1] | ED50 [2] | Activity [3] | Activity [4] | Activity [5] | Activity [6] | Activity [7] |
| --- | --- | --- | --- | --- | --- | --- | --- |
| CC(C)=CCC[C@@](C)(O)[C@@H]1CC=C(C)CC1 | 17.6% | 155 µg |  |  |  |  |  |
| CC1(C)CC[C@]2(C(=O)O)CC[C@]3(C)C(=CC[C@@H]4[C@@]5(C)CC[C@H](O)C(C)(C)[C@@H]5CC[C@]43C)[C@@H]2C1 [OLEANOLIC_ACID] |  |  | 26.2% | 39.3% | 25.4% | 30.9% | 42.9% |

From ChEMBL document CHEMBL1157978, “In vivo wound-healing activity of oleanolic acid derived from the acid hydrolysis of Anredera diffusa” (2006)
